pIC50: −log10 of the molar value. Several values for one entry are separate records, joined by “and”; a condition that tells them apart may be missing. Equal values may be shown once.
Tests used:
Assay in all cases: SelectScreen kinase assay
Assay type in all cases: biochemical
IRR_h = biological target: T1, IRR_h (Homo sapiens, UniProt P14616); conditions: KM ATP, read-out: % control
T1 construct: purchased Life Technologies (Invitrogen) SelectScreen, Z'-LYTE / Adapta
Summary of the method: (§1)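 Each enzyme is assayed by Z'-Lyte or Adapta with the compound at a constant 3 µM. ATP is used at that enzyme's KM or at 10 or 100 µM. Activity is expressed relative to DMSO-only controls.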

Aurora-A_h = biological target: T2, Aurora-A_h (Homo sapiens, UniProt O14965); conditions: KM ATP, read-out: % control
T2 construct: purchased Life Technologies (Invitrogen) SelectScreen, Z'-LYTE / Adapta
Summary of the method: as §1

Itk_h = biological target: T3, Itk_h (Homo sapiens, UniProt Q08881); conditions: KM ATP, read-out: % control
T3 construct: purchased Life Technologies (Invitrogen) SelectScreen, Z'-LYTE / Adapta
Summary of the method: as §1

JAK2-JH1-JH2_V617F_h = biological target: T4, JAK2-JH1-JH2_V617F_h (Homo sapiens, UniProt O60674, V617F); conditions: KM ATP, read-out: % control
T4 construct: purchased Life Technologies (Invitrogen) SelectScreen, Z'-LYTE / Adapta
Summary of the method: as §1

CaMKI-delta_h = biological target: T5, CaMKI-delta_h (Homo sapiens, UniProt Q8IU85); conditions: KM ATP, read-out: % control
T5 construct: purchased Life Technologies (Invitrogen) SelectScreen, Z'-LYTE / Adapta
Summary of the method: as §1

ROCK-II_h = biological target: T6, ROCK-II_h (Homo sapiens, UniProt O75116); conditions: KM ATP, read-out: % control
T6 construct: purchased Life Technologies (Invitrogen) SelectScreen, Z'-LYTE / Adapta
Summary of the method: as §1

NEK2_h = biological target: T7, NEK2_h (Homo sapiens, UniProt P51955); conditions: KM ATP, read-out: % control
T7 construct: purchased Life Technologies (Invitrogen) SelectScreen, Z'-LYTE / Adapta
Summary of the method: as §1

Hck_h = biological target: T8, Hck_h (Homo sapiens, UniProt P08631); conditions: KM ATP, read-out: % control
T8 construct: purchased Life Technologies (Invitrogen) SelectScreen, Z'-LYTE / Adapta
Summary of the method: as §1

PKC-epsilon_h = biological target: T9, PKC-epsilon_h (Homo sapiens, UniProt Q02156); conditions: KM ATP, read-out: % control
T9 construct: purchased Life Technologies (Invitrogen) SelectScreen, Z'-LYTE / Adapta
Summary of the method: as §1

FGFR3_K650E_h = biological target: T10, FGFR3_K650E_h (Homo sapiens, UniProt P22607, K650E); conditions: KM ATP, read-out: % control
T10 construct: purchased Life Technologies (Invitrogen) SelectScreen, Z'-LYTE / Adapta
Summary of the method: as §1

ALK4_h = biological target: T11, ALK4_h (Homo sapiens, UniProt P36896); conditions: KM ATP, read-out: % control
T11 construct: purchased Life Technologies (Invitrogen) SelectScreen, Z'-LYTE / Adapta
Summary of the method: as §1

TrkC_h = biological target: T12, TrkC_h (Homo sapiens, UniProt Q16288); conditions: KM ATP, read-out: % control
T12 construct: purchased Life Technologies (Invitrogen) SelectScreen, Z'-LYTE / Adapta
Summary of the method: as §1

MAPKAP-K2_h = biological target: T13, MAPKAP-K2_h (Homo sapiens, UniProt P49137); conditions: KM ATP, read-out: % control
T13 construct: purchased Life Technologies (Invitrogen) SelectScreen, Z'-LYTE / Adapta
Summary of the method: as §1

DAPK1_h = biological target: T14, DAPK1_h (Homo sapiens, UniProt P53355); conditions: KM ATP, read-out: % control
T14 construct: purchased Life Technologies (Invitrogen) SelectScreen, Z'-LYTE / Adapta
Summary of the method: as §1

Axl_h = biological target: T15, Axl_h (Homo sapiens, UniProt P30530); conditions: KM ATP, read-out: % control
T15 construct: purchased Life Technologies (Invitrogen) SelectScreen, Z'-LYTE / Adapta
Summary of the method: as §1

PKC-delta_h = biological target: T16, PKC-delta_h (Homo sapiens, UniProt Q05655); conditions: KM ATP, read-out: % control
T16 construct: purchased Life Technologies (Invitrogen) SelectScreen, Z'-LYTE / Adapta
Summary of the method: as §1

Abl_E255K_h = biological target: T17, Abl_E255K_h (Homo sapiens, UniProt P00519, E255K); conditions: KM ATP, read-out: % control
T17 construct: purchased Life Technologies (Invitrogen) SelectScreen, Z'-LYTE / Adapta
Summary of the method: as §1

PKB-gamma_h = biological target: T18, PKB-gamma_h (Homo sapiens, UniProt Q9Y243); conditions: KM ATP, read-out: % control
T18 construct: purchased Life Technologies (Invitrogen) SelectScreen, Z'-LYTE / Adapta
Summary of the method: as §1

HIPK2_h = biological target: T19, HIPK2_h (Homo sapiens, UniProt Q9H2X6); conditions: KM ATP, read-out: % control
T19 construct: purchased Life Technologies (Invitrogen) SelectScreen, Z'-LYTE / Adapta
Summary of the method: as §1

Rsk3_h = biological target: T20, Rsk3_h (Homo sapiens, UniProt Q15349); conditions: KM ATP, read-out: % control
T20 construct: purchased Life Technologies (Invitrogen) SelectScreen, Z'-LYTE / Adapta
Summary of the method: as §1

JAK3_h = JAK3_h (Homo sapiens, UniProt P52333)
Summary of the method: as §1

PRK1_h = biological target: T21, PRK1_h (Homo sapiens, UniProt Q16512); conditions: KM ATP, read-out: % control
T21 construct: purchased Life Technologies (Invitrogen) SelectScreen, Z'-LYTE / Adapta
Summary of the method: as §1

PDGFR-alpha_V561D_h = biological target: T22, PDGFR-alpha_V561D_h (Homo sapiens, UniProt P16234, V561D); conditions: KM ATP, read-out: % control
T22 construct: purchased Life Technologies (Invitrogen) SelectScreen, Z'-LYTE / Adapta
Summary of the method: as §1

PAK2_h = biological target: T23, PAK2_h (Homo sapiens, UniProt Q13177); conditions: KM ATP, read-out: % control
T23 construct: purchased Life Technologies (Invitrogen) SelectScreen, Z'-LYTE / Adapta
Summary of the method: as §1

PDGFR-alpha_T674I_h = biological target: T24, PDGFR-alpha_T674I_h (Homo sapiens, UniProt P16234, T674I); conditions: KM ATP, read-out: % control
T24 construct: purchased Life Technologies (Invitrogen) SelectScreen, Z'-LYTE / Adapta
Summary of the method: as §1

NEK1_h = biological target: T25, NEK1_h (Homo sapiens, UniProt Q96PY6); conditions: KM ATP, read-out: % control
T25 construct: purchased Life Technologies (Invitrogen) SelectScreen, Z'-LYTE / Adapta
Summary of the method: as §1

BrSK1_h = biological target: T26, BrSK1_h (Homo sapiens, UniProt Q8TDC3); conditions: KM ATP, read-out: % control
T26 construct: purchased Life Technologies (Invitrogen) SelectScreen, Z'-LYTE / Adapta
Summary of the method: as §1

MRCK-alpha_h = biological target: T27, MRCK-alpha_h (Homo sapiens, UniProt Q5VT25); conditions: KM ATP, read-out: % control
T27 construct: purchased Life Technologies (Invitrogen) SelectScreen, Z'-LYTE / Adapta
Summary of the method: as §1

Pim-1_h = biological target: T28, Pim-1_h (Homo sapiens, UniProt P11309); conditions: KM ATP, read-out: % control
T28 construct: purchased Life Technologies (Invitrogen) SelectScreen, Z'-LYTE / Adapta
Summary of the method: as §1

MST3_h = biological target: T29, MST3_h (Homo sapiens, UniProt Q9Y6E0); conditions: KM ATP, read-out: % control
T29 construct: purchased Life Technologies (Invitrogen) SelectScreen, Z'-LYTE / Adapta
Summary of the method: as §1

Khs_1 = biological target: T30, Khs_1 (Homo sapiens, UniProt Q9Y4K4); conditions: KM ATP, read-out: % control
T30 construct: purchased Life Technologies (Invitrogen) SelectScreen, Z'-LYTE / Adapta
Summary of the method: as §1

Aurora-B_h = Aurora-B_h (Homo sapiens, UniProt Q96GD4)
Summary of the method: as §1

EGFR_T790M_h = biological target: T31, EGFR_T790M_h (Homo sapiens, UniProt P00533, T790M); conditions: KM ATP, read-out: % control
T31 construct: purchased Life Technologies (Invitrogen) SelectScreen, Z'-LYTE / Adapta
Summary of the method: as §1

[1] = 3 µM, KM ATP, read-out: % control
[2] = 10-point dose-response, commercial vendor

Chain of Aurora-B_h (Q96GD4 whole entry): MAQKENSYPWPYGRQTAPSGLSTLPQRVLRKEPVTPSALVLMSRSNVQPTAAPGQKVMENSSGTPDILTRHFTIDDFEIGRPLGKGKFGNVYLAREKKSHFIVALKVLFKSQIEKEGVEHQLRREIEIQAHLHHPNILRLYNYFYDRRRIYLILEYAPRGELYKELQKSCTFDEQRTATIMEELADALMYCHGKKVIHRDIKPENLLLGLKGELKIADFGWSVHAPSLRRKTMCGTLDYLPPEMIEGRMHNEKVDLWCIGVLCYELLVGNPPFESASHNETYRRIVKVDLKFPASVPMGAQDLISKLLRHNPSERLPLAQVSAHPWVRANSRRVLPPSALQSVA
Chain of JAK3_h (P52333 whole entry): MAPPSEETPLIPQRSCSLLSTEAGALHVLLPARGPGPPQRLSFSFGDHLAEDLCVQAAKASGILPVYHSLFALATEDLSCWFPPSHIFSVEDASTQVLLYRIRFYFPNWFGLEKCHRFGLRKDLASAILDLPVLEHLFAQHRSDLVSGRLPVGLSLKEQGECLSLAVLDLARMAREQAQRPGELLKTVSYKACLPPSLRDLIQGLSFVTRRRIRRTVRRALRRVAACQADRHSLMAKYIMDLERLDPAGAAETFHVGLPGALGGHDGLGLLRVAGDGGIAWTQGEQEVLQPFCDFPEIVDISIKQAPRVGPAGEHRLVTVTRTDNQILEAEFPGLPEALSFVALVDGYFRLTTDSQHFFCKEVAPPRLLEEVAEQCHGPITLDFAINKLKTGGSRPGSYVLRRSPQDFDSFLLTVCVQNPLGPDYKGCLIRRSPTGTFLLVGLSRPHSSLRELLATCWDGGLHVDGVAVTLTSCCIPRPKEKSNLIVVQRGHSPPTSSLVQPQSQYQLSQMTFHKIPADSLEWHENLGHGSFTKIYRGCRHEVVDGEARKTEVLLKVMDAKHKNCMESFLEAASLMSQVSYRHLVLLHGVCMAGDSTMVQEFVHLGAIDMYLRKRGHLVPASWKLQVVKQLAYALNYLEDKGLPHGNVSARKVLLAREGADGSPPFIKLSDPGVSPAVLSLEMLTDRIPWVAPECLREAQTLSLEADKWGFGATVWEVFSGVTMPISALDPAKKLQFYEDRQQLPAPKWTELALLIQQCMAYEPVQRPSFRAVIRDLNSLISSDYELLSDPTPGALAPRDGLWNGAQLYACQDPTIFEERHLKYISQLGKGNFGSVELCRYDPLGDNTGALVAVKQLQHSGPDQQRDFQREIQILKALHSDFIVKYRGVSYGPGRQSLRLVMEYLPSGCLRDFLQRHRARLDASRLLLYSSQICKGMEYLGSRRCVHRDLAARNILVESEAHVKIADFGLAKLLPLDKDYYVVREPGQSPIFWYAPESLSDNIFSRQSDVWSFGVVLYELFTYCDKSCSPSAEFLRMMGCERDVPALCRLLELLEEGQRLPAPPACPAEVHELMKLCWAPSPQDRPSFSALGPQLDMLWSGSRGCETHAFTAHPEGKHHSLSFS
T19 sequence (Q9H2X6 whole entry): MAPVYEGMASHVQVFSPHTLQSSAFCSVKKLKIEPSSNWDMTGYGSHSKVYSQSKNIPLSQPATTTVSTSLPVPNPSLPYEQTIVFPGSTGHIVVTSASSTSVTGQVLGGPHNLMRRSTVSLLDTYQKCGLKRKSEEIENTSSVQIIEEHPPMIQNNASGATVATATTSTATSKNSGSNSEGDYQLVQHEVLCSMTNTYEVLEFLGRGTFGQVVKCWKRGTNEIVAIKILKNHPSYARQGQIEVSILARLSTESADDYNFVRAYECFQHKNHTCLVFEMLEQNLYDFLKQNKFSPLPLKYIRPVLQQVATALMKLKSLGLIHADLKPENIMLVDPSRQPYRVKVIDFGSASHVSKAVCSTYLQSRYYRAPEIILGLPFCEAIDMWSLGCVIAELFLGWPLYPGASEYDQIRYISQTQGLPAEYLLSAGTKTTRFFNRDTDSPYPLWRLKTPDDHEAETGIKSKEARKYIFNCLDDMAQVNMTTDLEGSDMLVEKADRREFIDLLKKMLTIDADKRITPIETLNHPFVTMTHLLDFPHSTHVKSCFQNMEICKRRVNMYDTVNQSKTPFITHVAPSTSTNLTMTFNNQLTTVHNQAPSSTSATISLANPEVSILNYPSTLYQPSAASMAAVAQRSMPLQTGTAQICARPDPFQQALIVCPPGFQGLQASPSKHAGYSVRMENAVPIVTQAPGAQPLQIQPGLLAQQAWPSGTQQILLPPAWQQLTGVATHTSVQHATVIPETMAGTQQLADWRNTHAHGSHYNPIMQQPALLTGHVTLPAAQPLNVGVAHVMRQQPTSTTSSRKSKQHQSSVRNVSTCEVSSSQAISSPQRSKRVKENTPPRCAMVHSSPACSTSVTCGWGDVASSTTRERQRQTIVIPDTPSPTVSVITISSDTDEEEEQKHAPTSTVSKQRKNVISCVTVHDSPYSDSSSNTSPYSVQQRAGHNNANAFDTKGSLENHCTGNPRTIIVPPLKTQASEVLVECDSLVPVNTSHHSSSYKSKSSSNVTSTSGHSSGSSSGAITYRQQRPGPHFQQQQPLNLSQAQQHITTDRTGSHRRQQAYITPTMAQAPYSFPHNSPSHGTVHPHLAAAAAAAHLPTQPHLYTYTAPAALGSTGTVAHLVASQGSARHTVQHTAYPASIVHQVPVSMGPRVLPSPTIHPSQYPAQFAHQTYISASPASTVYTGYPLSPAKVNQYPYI
T10 sequence (P22607 23-806 K650E): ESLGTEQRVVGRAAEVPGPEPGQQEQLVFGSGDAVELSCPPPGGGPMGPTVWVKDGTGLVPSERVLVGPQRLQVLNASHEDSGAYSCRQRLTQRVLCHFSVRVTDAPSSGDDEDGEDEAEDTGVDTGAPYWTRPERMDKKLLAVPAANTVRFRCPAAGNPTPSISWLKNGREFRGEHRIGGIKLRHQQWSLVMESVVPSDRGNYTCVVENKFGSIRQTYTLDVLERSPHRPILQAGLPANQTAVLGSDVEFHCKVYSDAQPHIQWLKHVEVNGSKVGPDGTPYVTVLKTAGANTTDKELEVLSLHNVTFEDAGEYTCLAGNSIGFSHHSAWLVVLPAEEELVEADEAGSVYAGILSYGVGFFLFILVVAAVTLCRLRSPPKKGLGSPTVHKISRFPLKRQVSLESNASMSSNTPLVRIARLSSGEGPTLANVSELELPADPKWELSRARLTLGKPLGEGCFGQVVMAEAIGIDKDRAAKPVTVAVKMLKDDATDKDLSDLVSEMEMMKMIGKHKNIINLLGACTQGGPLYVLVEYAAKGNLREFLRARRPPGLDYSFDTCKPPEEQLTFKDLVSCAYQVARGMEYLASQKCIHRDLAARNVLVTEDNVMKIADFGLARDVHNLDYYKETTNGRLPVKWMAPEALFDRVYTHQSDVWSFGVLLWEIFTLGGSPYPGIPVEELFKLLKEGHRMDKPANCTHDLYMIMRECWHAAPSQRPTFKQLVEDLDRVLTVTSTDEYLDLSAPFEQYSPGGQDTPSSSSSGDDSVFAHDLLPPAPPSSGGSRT
T7 sequence (P51955 whole entry): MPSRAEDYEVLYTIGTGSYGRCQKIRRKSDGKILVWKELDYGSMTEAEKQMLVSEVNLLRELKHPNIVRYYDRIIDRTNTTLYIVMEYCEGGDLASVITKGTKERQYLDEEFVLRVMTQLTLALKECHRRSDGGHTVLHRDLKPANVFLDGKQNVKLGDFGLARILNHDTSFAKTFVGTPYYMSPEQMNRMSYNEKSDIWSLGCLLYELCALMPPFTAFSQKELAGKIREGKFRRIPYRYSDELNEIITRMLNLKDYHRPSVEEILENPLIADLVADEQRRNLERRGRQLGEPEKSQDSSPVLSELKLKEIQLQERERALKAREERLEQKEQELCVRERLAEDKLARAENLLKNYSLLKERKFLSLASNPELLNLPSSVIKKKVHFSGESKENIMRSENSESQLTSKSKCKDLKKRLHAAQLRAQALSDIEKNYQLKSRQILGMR
T16 sequence (Q05655 whole entry): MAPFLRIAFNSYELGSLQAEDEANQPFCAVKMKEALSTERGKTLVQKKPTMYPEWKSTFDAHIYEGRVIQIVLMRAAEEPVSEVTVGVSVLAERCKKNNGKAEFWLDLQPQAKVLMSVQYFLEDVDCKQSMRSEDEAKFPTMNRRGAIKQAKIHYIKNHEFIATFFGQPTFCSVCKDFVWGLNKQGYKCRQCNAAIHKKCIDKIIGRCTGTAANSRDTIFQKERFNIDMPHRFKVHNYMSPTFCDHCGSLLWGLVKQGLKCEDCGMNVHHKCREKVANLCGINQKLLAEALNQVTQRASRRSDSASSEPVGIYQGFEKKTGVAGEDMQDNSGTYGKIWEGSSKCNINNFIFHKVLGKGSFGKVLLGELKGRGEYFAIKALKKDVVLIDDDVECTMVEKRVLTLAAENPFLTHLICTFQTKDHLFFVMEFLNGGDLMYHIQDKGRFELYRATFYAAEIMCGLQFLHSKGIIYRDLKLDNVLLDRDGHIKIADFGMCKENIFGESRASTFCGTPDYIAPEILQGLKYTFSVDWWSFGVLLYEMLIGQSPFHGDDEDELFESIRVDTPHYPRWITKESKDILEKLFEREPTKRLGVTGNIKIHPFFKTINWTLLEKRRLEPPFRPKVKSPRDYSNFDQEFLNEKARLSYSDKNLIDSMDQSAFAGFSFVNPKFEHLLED
T2 sequence (O14965 whole entry): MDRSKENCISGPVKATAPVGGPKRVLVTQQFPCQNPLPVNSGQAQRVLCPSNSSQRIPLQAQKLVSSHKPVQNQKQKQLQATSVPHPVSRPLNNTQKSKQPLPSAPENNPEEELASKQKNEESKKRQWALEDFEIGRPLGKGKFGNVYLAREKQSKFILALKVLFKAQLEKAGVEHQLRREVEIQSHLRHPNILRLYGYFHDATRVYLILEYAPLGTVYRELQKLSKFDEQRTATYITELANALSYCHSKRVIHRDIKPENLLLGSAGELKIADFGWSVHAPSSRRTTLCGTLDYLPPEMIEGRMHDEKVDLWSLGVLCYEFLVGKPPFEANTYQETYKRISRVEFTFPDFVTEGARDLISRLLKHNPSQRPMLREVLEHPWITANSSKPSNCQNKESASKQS

Compound: c1cc(CC2CCOCC2)n2nc(Nc3ccc4c(NC5CCOCC5)n[nH]c4c3)nc2c1 [CC-509, [3-(2H-3,4,5,6-tetrahydropyran-4-ylamino)(1H-indazol-6-yl)][5-(2H-3,4,5,6-tetrahydropyran-4-ylmethyl)(2H-1,2,4-triazolo[1,5-a]pyridin-2-yl)]amine]
- remaining activity at 3 µM (IRR_h): 99%
- remaining activity at 3 µM (Aurora-A_h): 6%
- remaining activity at 3 µM (Itk_h): 91%
- remaining activity at 3 µM (JAK2-JH1-JH2_V617F_h): 8%
- remaining activity at 3 µM (CaMKI-delta_h): 86%
- remaining activity at 3 µM (ROCK-II_h): 69%
- remaining activity at 3 µM (NEK2_h): 101%
- remaining activity at 3 µM (Hck_h): 71%
- remaining activity at 3 µM (PKC-epsilon_h): 100%
- remaining activity at 3 µM (FGFR3_K650E_h): 54%
- remaining activity at 3 µM (ALK4_h): 107%
- remaining activity at 3 µM (TrkC_h): 25%
- remaining activity at 3 µM (MAPKAP-K2_h): 96%
- remaining activity at 3 µM (DAPK1_h): 104%
- remaining activity at 3 µM (Axl_h): 70%
- remaining activity at 3 µM (PKC-delta_h): 91%
- remaining activity at 3 µM (Abl_E255K_h): 26%
- remaining activity at 3 µM (PKB-gamma_h): 99%
- remaining activity at 3 µM (HIPK2_h): 96%
- remaining activity at 3 µM (Rsk3_h): 33%
- remaining activity at 3 µM (JAK3_h; [1]): 5%
- pIC50 (JAK3_h; [2]): 7.70 and 7.74
- remaining activity at 3 µM (PRK1_h): 60%
- remaining activity at 3 µM (PDGFR-alpha_V561D_h): 0%
- remaining activity at 3 µM (PAK2_h): 85%
- remaining activity at 3 µM (PDGFR-alpha_T674I_h): 80%
- remaining activity at 3 µM (NEK1_h): 73%
- remaining activity at 3 µM (BrSK1_h): 65%
- remaining activity at 3 µM (MRCK-alpha_h): 91%
- remaining activity at 3 µM (Pim-1_h): 101%
- remaining activity at 3 µM (MST3_h): 107%
- remaining activity at 3 µM (Khs_1): 81%
- remaining activity at 3 µM (Aurora-B_h; [1]): 14%
- pIC50 (Aurora-B_h; [2]): 6.39
- remaining activity at 3 µM (EGFR_T790M_h): 54%
